# US5587463A, “Texaphyrin macrocycles and metal complexes thereof” (Board of Regents, The University of Texas System, priority 1994, dated 1996)
# “Also recorded” adds a separate entry of the source. Where two headings read alike, the source gives them in different places.
# Tests used:
# [1] = Optical and photophysical properties of metallotexaphyrins (laser flash photolysis, fluorescence, singlet oxygen luminescence); format: physicochemical; set-up: tt (triplet lifetime): unit not given here; settings: CH3 OH
# Text: Finally, several complexes containing paramagnetic metal ions (e.g. Mn^II, Sm^III, and Eu^III, structures 5c -7c) were investigated.
# Comparison of the initial intensity with that obtained using tetrakis (4-hydroxyphenyl)porphyrin (THPP) as photosensitizer^3b under identical conditions allowed calculation of the quantum yields for production of singlet oxygen (^.phi. 1.cndot.2).
# herpes simplex (HSV-1) = assay: Preliminary in vitro HSV-1 infectivity study in 10% human serum; format: cell-based; settings: irradiation at 767 nm
# Text: (§1) In summary, the new metallotexaphrin complexes discussed here show three important optical properties which make them unique among existing porphyrin-like macrocycles. They absorb strongly in a physiologically important region (i.e. 730-770 nm), form long-lived triplet states in high yield, and act as efficient photosensitizers for the formation of singlet oxygen (see, e.g. FIG. 21).
# lymphocyte = assay: Preliminary in vitro lymphocyte mitogenic activity study in 10% human serum; format: cell-based; settings: irradiation at 767 nm
# Text: as §1
# HSV-1 = assay: Preliminary in vitro photo-killing of HSV-1 infectivity; format: cell-based
# Text: (§2) Several preliminary in vitro biological studies have been carried out with the cadmium(II) complexes of the 18 and 22 π-electron texaphyrins 14D and 5D. […] This latter result, in particular, augurs well for the eventual use of these materials in prophylactic photodynamic anti-AIDS blood-treatment programs. The 2 log decrease in HSV-1 activity achieved with the texaphyrin systems studied to date is not yet sufficient to completely design a viable protocol: Both HPD and PII, as well as sapphyrin (6D) , reprepared by literature methods^70 provide about a 5 log decrease in viral activity under similar light fluence when irradiated at the appropriate lowest energy transition (630 and 690 nm, respectively). Although a mechanistic comparison with the incompletely characterized hematoporphyrin-derived systems is difficult, a direct structural correspondence exists between the tripyrroledimethine-derived cadmium(II) texaphyrin and free-base sapphyrin systems: The main difference is in overall charge on the photosensitizer. It may thus be that these two macrocycle types are bound to the virus envelope in a different manner; perhaps the sapphyrin "intercalates" into the lipid layer and the charged metallotexaphyrin sits on the surface of the membrane and as such could suffer from deleterious aggregations (which would lower singlet oxygen production).
# [2] = Cytotoxicity in the absence of light; format: cell-based; settings: preliminary
# Text: In addition, some preliminary toxicity and stability information will begin to emerge from these in vitro experiments.
# lymphocytes = assay: Localization on lymphocytes by absorption and emission measurements; format: cell-based
# Text: as §2
# [3] = Stability in methanol/water or water (decomplexation, decomposition)
# [4] = Imine hydrolysis half-life by pH
# [5] = 1:1 methanol/water
# [6] = Stability of free-base macrocycle; format: physicochemical
# [7] = test system: rapidly growing tissues including sarcomas and carcinomas; settings: in vivo; cited from earlier work
# [8] = Stability to demetallation (sulfide, thiosulfate); format: physicochemical; settings: aqueous Na2 S / excess sulfide anion
# Text: The above K1 and K2 (or K1 K2) values are predicated on the assumption that the cadmium complexes under discussion are stable with regards to demetallation and that the equilibria of equations 1 and 2 (or 3) pertain under the conditions of base binding. The first of these concerns is readily apparent: If demetallation occurs, then obviously one is not studying base binding! […] The second concern is particularly important within the context of quantitative work: If, for instance, the starting complex 3.cndot.NO3 is not rigorously five coordinate, then K1 (and perhaps K2 as well) would represent an axial ligand displacement reaction rather than a pure addition process as implied above. Control experiments indicate that the assumption of initial five coordination is reasonable: Independent titrations of 3A .cndot.NO3 with NH4 NO3 and H2 O indicate that only modest and monotonic changes in the chemical shift of the "meso" signals take place over the course of adding ≥50 equivalents of these potentially adventitious ligands.^40 This means that either "complete" binding occurs at 1:1 stoichiometry (essentially ruled out in the case of H2 O on the basis of analytical data), or that these species are poorly coordinating in CHCl3 so that five coordination pertains about cadmium; the latter interpretation appearing more likely.
# Attempts to demetallate complex 3A .cndot.NO3 were made. In an effort to obtain the free sp^2 bridged ligand 2A, the above complex in chloroform was stirred for several hours in the presence of sodium sulfide and independently with sodium thiosulfate. […] In the case of sodium sulfide, this critical conclusion was further supported by FAB MS: Other than the starting cationic complex 3A, no evidence was obtained for any moderate to high molecular weight volatile products in the mass spectrum. […] The rate of this process, however, is strongly pH dependent, the half-life being, for instance, on the order of several hours in the presence of ca. 0.1N HCl.
# [9] = benzene, cited from earlier work
# [10] = test system: enveloped viruses (HSV-1, cytomegalovirus, measles virus, HIV-1); settings: previous studies; cited from earlier work
compound,measurement,setting,value
CCC1=C(C)c2cnc3ccccc3ncc3nc(cc4[n-]c(cc1n2)c(CC)c4CC)C(CC)=C3C.O=[N+]([O-])[O-].[Cd+2] [3C NO3],Emission gmax,[1],780 nm
same,S (= phi 1O2 / phi t),[1],0.78
same,tt (triplet lifetime),[1]; deoxygenated,55
same,Absorption gmax (Soret-type band),[1]; first value (Soret),417 nm
same,Absorption gmax (Q-type band),[1]; second value (Q-type),759 nm
same,Dt (triplet quantum yield),[1]; ±5%,0.88
same,D^1 O2 (singlet oxygen quantum yield),[1]; ±10%,0.69
same,Df (fluorescence quantum yield),[1]; ±10%,0.011
same,HSV-1 infectivity,herpes simplex (HSV-1),significant decrease
same,lymphocyte mitogenic activity,lymphocyte,significant decrease
CCC1=C(C)c2cnc3ccccc3ncc3nc(cc4[nH]c(cc1n2)c(CC)c4CC)C(CC)=C3C [5D],photo-killing of HSV-1 infectivity,"HSV-1; 20 J/cm^2 at lowest energy absorption (690 nm for 14D, 767 nm for 5D)",ca. 2 log
same,dark antiviral activity,HSV-1; dark,neither 5D nor 14D show any appreciable dark antiviral activity
same,general cytotoxicity,[2],"nor, fortunately, do they show much evidence of general cytotoxicity in the absence of light"
same,localization on lymphocytes,lymphocytes,localize selectively on lymphocytes
"CCc1c(CC)c2cc3nc(cc4[nH]c(c(C)c4CC)c4[nH]c(cc5nc(cc1[nH]2)C(CCC(=O)N(CCO)CCO)=C5C)c(CC)c4C)C(C)=C3CCC(=O)N(CCO)CCO [6D, reference compound]",decrease in viral activity,"HSV-1; similar light fluence, at lowest energy transition (630 and 690 nm, respectively)",~5 log
CCC1=C(C)c2cnc3ccccc3ncc3nc(cc4[n-]c(cc1n2)c(CC)c4CC)C(CC)=C3C.[In+3] [In^3+ complex of texaphyrin],hydrolytic stability (in words),[3],kinetically and hydrolytically stable
same,half-lives for decomplexation and/or ligand decomposition,[3]; 1:1 methanol-water,exceed 3 weeks
CCC1=C(C)c2cnc3ccccc3ncc3nc(cc4[n-]c(cc1n2)c(CC)c4CC)C(CC)=C3C.[Cd+2] [cadmium(II) complex of 5D],general cytotoxicity,[2],not appreciable cytotoxic
CCC1=C(C)c2cnc3ccccc3ncc3nc(cc4[n-]c(cc1n2)c(CC)c4CC)C(CC)=C3C.[Cd+2] [complex 2B],half-life for imine hydrolysis,[4]; pH 2,several hours
same,half-life for imine hydrolysis,[4]; pH 7,> 30 days
CCC1=C(C)C2=[N+]3C1=Cc1c(CC)c(CC)c4[n]1[Gd-2]315[N+](=C2)c2cc(C)c(C)cc2[N+]1=CC1=[N+]5C(=C4)C(CC)=C1C.[OH-].[OH-] [complex 7B],half-life,[5],over 5 weeks
same,half-life for decomplexation and/or decomposition,[5],≥ 100 days
same,bleaching of the Soret and Q-type bands,"[5]; 336 h, 35 µM",less than 10%
same,half-life for imine hydrolysis,pH 2,several hours
same,half-life for imine hydrolysis,pH 7,> 30 days
"CCC1=C(C)c2cnc3ccccc3ncc3nc(cc4[nH]c(cc1n2)c(CC)c4CC)C(CC)=C3C [compound 2, 4,5,9,24-tetraethyl-10,23-dimethyl-13,20,25,26,27-pentaazapentacyclo [20.2.1.1^3,6.1^8,11.0^14,19] heptacosa-1,3,5,7,9,11(27), 12,14,16,18,20,22 (25),23-tridecaene]",stability of free-base relative to compound 1,[6],undergoes decomposition far more slowly than compound 1
CC1=C(CCC(=O)O)c2cc3[nH]c(cc4nc(cc5[nH]c(cc1n2)c(C)c5C(C)O)C(C)=C4C(C)O)c(C)c3CCC(=O)O (stereo not shown) [hematoporphyrin],localization in rapidly growing tissues,[7],localize selectively in rapidly growing tissues including sarcomas and carcinomas
"cadmium tetraphenyl porphyrin [CdTPP, reference compound]",demetallation by sulfide,[8],serves to demetallate CdTPP; also recorded: leads to cation loss and precipitation of CdS
same,Kd,"[9]; 29.9°, read-out: K1 (single pyridine axial ligand) (converted)",~370 µM
same,formation of bisligated species,[9]; pyridine-containing,no evidence for the formation of a bisligated CdTPP-(pyr)2
dihematoporphyrin ether [DHE],inactivation of viruses,[10],only those viruses studied which are enveloped or possess a membraneous coat are inactivated
